The source made the active and inactive calls.
Legend:
[1] = target: Induced myeloid leukemia cell differentiation protein Mcl-1 (Homo sapiens, UniProt Q07820); format: functional
Protein skinhead-1 = target: T1, Protein skinhead-1 (Caenorhabditis elegans, UniProt P34707); format: functional
T1 sequence (P34707 whole entry): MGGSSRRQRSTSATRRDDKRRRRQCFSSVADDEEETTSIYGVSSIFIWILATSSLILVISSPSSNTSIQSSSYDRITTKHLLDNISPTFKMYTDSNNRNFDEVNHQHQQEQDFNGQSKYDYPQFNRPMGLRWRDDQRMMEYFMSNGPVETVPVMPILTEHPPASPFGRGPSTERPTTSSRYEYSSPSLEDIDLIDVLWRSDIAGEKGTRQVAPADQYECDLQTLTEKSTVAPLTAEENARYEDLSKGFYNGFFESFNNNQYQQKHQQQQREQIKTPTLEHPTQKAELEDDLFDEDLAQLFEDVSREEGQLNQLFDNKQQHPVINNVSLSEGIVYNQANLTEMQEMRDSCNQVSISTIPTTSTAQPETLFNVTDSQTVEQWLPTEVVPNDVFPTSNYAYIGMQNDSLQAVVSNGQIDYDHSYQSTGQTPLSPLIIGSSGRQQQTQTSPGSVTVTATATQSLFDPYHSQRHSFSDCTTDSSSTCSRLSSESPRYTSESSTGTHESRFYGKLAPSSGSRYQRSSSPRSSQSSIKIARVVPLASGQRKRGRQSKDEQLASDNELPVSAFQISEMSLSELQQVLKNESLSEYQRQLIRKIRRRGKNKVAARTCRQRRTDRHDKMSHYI

[2] = target: Mitogen-activated protein kinase 10 (Homo sapiens, UniProt P53779); test: Dose response biochemical screening assay for inhibitors of c-Jun N-Terminal Kinase 3 (JNK3). [Related pubchem assays: 746 ]
[3] = Luminescence Cell-Based Dose Response HTS to Identify Activators of Luciferase Translation or Activity in H4 […] Cells. [Related pubchem assays: 1829 (Project Summary), 1814 (Primary HTS)]; format: functional
H4 = test: Luminescence Cell-Based Dose Response HTS to Identify Activators of 5'UTR Stem-Loop Driven Prion Protein mRNA Translation in H4 Neuroglioblastoma Cells. [Related pubchem assays: 1829 (Project Summary), 1814 (Primary HTS)]; format: functional; settings: Homo sapiens
[4] = target: T2, Calpain-2 catalytic subunit (Sus scrofa, UniProt P43367); test: pig calpain II inhibitor potency, dose response, biochemical, fluorogenic peptide substrate (AID 1420); format: functional
T2 sequence (P43367 whole entry): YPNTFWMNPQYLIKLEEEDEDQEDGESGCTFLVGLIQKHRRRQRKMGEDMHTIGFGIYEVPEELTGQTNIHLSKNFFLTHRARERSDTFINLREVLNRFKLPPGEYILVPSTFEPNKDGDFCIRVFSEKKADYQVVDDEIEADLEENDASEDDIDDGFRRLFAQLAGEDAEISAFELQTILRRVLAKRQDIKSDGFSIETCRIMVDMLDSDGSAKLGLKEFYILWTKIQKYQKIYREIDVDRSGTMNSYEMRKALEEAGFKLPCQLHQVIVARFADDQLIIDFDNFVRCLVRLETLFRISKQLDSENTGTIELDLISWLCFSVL

Leucine aminopeptidase = target: T3, Leucine aminopeptidase (Plasmodium falciparum 3D7, UniProt Q8IL11); test: P. falciparum M17LAP inhibitors, primary screen, biochemical, fluorogenic H-Leu-NHMec substrate, 1536-well (AID 1619); format: functional
T3 sequence (Q8IL11 whole entry): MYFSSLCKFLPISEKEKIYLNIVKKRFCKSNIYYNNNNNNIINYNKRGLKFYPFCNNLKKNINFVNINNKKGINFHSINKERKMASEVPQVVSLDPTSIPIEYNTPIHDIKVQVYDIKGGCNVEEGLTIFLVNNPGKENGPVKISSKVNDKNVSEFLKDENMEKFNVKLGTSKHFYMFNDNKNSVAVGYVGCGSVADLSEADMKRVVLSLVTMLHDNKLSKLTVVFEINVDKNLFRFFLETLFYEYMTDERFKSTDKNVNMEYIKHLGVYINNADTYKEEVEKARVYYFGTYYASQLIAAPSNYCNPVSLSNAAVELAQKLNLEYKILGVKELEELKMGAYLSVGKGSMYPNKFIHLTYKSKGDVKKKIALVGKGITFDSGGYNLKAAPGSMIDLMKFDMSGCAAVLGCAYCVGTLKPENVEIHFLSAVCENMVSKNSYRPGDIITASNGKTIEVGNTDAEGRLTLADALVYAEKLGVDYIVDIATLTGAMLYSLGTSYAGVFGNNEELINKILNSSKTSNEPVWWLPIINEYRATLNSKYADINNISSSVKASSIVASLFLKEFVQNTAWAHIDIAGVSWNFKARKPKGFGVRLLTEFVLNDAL

[5] = target: T4, Mannose-6-phosphate isomerase (Homo sapiens, UniProt P34949); test: human PMI inhibitors, high substrate, primary screen, biochemical, fluorescence intensity, high mannose 6-phosphate (AID 1220)
T4 sequence (P34949 whole entry): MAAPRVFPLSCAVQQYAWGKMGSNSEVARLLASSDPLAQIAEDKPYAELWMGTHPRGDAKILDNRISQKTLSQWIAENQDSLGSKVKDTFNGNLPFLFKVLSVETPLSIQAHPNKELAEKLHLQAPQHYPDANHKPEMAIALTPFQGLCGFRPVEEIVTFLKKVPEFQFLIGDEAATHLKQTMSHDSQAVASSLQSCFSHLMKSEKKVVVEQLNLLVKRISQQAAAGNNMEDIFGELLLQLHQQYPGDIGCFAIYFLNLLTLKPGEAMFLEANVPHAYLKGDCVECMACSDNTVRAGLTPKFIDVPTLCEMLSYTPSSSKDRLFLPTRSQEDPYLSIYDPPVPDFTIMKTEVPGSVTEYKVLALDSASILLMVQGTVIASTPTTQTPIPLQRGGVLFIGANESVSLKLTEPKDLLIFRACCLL

Protein RecA = target: T5, Protein RecA (Mycobacterium tuberculosis, UniProt P9WHJ3); test: Fluorescence Cell-Free Homogeneous Dose Retest to Identify Inhibitors of RecA-Intein Splicing Activity. [Related pubchem assays (depositor defined):AID2097, AID2223, AID489010, AID492950]; format: functional
T5 sequence (P9WHJ3 whole entry): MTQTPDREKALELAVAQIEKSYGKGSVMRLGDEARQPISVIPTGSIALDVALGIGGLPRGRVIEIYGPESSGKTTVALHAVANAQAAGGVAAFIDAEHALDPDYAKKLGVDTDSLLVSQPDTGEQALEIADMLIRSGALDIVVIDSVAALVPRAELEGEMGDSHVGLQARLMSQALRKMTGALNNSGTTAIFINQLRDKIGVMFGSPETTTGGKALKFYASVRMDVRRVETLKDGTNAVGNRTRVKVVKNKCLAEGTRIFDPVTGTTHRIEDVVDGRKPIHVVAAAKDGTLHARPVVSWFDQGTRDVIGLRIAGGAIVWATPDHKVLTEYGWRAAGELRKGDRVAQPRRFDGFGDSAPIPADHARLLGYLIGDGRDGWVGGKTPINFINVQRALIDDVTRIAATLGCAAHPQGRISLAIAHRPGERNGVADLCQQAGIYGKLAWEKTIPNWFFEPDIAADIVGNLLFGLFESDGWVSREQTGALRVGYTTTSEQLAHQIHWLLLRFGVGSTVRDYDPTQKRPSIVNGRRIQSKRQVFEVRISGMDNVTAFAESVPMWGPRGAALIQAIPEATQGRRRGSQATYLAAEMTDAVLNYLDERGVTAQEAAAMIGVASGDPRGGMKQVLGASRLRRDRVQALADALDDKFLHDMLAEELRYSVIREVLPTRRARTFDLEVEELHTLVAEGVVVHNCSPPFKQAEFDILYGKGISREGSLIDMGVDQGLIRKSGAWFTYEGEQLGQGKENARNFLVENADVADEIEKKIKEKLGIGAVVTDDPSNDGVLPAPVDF

[6] = target: T6, Replicative DNA helicase DnaB (Mycobacterium tuberculosis, UniProt P9WMR3); test: DnaB intein splicing inhibitors, dose response, biochemical, cell-free fluorescence (AID 449749); format: functional
T6 sequence (P9WMR3 whole entry): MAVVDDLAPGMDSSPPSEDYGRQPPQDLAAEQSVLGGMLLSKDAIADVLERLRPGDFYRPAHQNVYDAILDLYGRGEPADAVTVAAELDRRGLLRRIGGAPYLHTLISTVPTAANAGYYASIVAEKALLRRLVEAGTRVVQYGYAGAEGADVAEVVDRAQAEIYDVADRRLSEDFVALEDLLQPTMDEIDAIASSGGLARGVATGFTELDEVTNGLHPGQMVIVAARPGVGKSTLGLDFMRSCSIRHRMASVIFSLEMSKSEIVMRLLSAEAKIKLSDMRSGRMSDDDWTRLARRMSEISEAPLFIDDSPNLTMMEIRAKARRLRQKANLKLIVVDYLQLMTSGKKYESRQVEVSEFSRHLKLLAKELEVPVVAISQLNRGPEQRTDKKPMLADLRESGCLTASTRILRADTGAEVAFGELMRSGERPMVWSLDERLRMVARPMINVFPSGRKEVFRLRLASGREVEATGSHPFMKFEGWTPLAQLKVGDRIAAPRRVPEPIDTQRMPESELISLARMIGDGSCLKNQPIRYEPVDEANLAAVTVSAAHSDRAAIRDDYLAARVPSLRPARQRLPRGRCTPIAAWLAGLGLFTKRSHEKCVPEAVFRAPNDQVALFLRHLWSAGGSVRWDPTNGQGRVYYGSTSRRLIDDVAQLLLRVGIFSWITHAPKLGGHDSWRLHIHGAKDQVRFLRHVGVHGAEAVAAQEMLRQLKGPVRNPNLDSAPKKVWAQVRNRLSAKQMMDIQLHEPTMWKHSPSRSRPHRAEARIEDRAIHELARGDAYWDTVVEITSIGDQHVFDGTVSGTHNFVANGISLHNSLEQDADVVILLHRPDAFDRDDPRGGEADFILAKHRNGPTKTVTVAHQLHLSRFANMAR

[7] = target: T7, Ubiquitin-conjugating enzyme E2 N (Homo sapiens, UniProt P61088); format: functional;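 also: Dose-response confirmation in a TR-FRET assay detecting UBC13-driven polyubiquitin chain formation, inhibition measured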
T7 sequence (P61088 whole entry): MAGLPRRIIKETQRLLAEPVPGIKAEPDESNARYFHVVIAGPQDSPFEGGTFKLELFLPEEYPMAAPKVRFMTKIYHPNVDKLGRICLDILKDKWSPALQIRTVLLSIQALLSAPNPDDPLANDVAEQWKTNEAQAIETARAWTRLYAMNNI

[8] = HepG2 cell cytotoxicity, dose response, cytotoxicity control for Shn3 inhibitor project, CellTiter-Glo, cherry-picked (AID 624134); format: functional, cell-based
[9] = control 3'UTR Renilla luciferase suppression, dose response, counter-screen for Shn3 inhibitor project, cell-based, Clone20-Shn3RL, cherry-picked (AID 624133); format: functional
[10] = Shn3 3'UTR reporter inhibitors, dose response, cell-based, Clone20 osteoblasts, firefly luciferase, cherry-picked (AID 624132); format: functional;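 also: firefly luciferase luminescence from reporter carrying the Shn3 3'UTR in osteoblasts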
[11] = off-target signal loss in HeLa-CEM21 co-culture – HeLa F-luc CTL cells, cherry-picked, counter-screen for HIV-1 Env fusion inhibitor project, dose response (AID 652040); format: functional, cell-based;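 also: potency for signal decrease marking cytotoxic or nonspecific inhibition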
[12] = inhibitors of clade B AD8 Env fusion, dose response, cell-based, cherry-pick (AID 652062); format: functional;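 also: luciferase signal from cell-cell fusion driven by HIV-1 clade B AD8 Env; potency is for inhibitors of fusion seen as a drop in luminescence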
[13] = ZM109 Env clade C HIV-1 fusion inhibitors, dose response, HeLa effector, CEM target cells, luciferase, cherry-pick (AID 652058); format: functional, cell-based
[14] = inhibitors of HIV Env-driven cell fusion, dose response, cherry-pick (AID 652057); format: functional, cell-based

Sequence of Induced myeloid leukemia cell differentiation protein Mcl-1 (Q07820 whole entry): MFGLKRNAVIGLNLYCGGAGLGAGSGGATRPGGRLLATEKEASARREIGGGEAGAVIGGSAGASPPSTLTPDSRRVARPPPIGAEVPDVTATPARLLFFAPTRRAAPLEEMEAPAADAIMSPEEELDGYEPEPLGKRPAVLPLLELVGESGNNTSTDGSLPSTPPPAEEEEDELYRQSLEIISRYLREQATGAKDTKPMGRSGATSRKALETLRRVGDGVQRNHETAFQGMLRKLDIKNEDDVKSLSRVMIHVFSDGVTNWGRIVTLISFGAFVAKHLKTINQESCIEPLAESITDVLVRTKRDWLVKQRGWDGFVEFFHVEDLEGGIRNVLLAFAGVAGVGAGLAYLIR
Sequence of Mitogen-activated protein kinase 10 (P53779 whole entry): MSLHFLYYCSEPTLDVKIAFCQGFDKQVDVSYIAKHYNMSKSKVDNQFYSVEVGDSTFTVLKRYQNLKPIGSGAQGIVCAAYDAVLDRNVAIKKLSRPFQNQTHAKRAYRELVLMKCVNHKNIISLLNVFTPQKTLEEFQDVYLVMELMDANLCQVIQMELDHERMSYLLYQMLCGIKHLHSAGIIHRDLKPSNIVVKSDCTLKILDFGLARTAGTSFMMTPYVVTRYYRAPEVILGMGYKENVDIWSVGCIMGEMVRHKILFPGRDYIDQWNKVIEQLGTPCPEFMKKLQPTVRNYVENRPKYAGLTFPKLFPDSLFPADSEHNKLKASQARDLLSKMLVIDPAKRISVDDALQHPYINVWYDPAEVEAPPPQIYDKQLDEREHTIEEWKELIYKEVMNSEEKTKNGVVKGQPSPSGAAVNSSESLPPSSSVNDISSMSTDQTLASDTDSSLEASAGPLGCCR

Question: For `COc1ccc(NC(=O)CN2C(=O)/C(=C3\SC(=S)N(C4CCS(=O)(=O)C4)C3=O)c3ccccc32)cc1` (centres undefined), which IC50 [1] is on record?
Answer: The IC50 was 3.39 µM (active).

Question: Which IC50 (Protein skinhead-1) does the source give for `c1ccc(-n2nc3ccc4c[nH]nc4c3n2)cc1` here?
Answer: The IC50 was > 100 µM (inactive).

Question: What about the IC50 [2] of the same compound?
Answer: The IC50 was 43 µM (not active).

Question: What about the EC50 [3] of the same compound?
Answer: The EC50 was > 120 µM (not active).

Question: What about the EC50 (H4) of the same compound?
Answer: Its EC50 is 0.327 µM (active).

Question: For `CC(C)Oc1ccc(CCc2nnc(S)n2Cc2ccccc2)cc1`, which IC50 [4] is on record?
Answer: The IC50 was 4.67 µM (not active).

Question: For `CCc1nnc(NS(=O)(=O)c2ccc(NC(=O)COc3ccc4ccccc4c3)cc2)s1`, which IC50 (Leucine aminopeptidase) is on record?
Answer: Its IC50 is 5.1 µM (active).

Question: Which IC50 [5] does the source give for `CCCC(=O)OCCNc1cc(SCCC(=O)OC)c2nonc2c1[N+](=O)[O-]` here?
Answer: The IC50 was > 50 µM (not active).

Question: And the EC50 (Protein RecA)?
Answer: The EC50 was 4.87 µM (active).

Question: What about the AC50 [6] of the same compound?
Answer: The AC50 was 2.88 µM (active).

Question: Which IC50 [7] does the source give for `Cc1ccc(/N=C2\C(Cl)=C(O)OC2OC(=O)c2ccccc2C)cc1` (centres undefined) here?
Answer: The IC50 was > 20 µM (inactive).

Question: And the IC50 [4]?
Answer: Its IC50 is 12.6 µM (not active).

Question: Which IC50 (Leucine aminopeptidase) does the source give for `Cc1ccc(Nc2cnn(C34CC5CC(CC(CC(=O)O)(C5)C3)C4)c(=O)c2Cl)cc1` here?
Answer: Its IC50 is 44.1 µM (active).

Question: Which IC50 (Leucine aminopeptidase) does the source give for `O=C(O)CC12CC3CC(C1)CC(n1ncc(NCc4ccc(F)cc4)c(Cl)c1=O)(C3)C2` here?
Answer: The IC50 was 54 µM (active).

Question: Which AC50 [8] does the source give for `CC1CCC2C(=O)N(c3ccc(Cc4ccncc4)cc3)C(=O)C2C1` (centres undefined) here?
Answer: The AC50 was 47.7 µM (active).

Question: And the AC50 [9]?
Answer: The AC50 was 5.74 µM (active).

Question: What about the AC50 [10] of the same compound?
Answer: Its AC50 is 2.65 µM (active).

Question: What about the IC50 [4] of the same compound?
Answer: The IC50 was 13.3 µM (not active).

Question: Which results are given for `CC(C)(C)C1CCc2onc(C(=O)NCc3ccc(F)cc3)c2C1` (centres undefined)?
Answer: AC50 [11]: 37 µM (active); AC50 [12]: 21.9 µM (active); AC50 [13]: 2.91 µM (active); AC50 [14]: 23 µM (active); IC50 [4]: > 50 µM (not active)

Question: With `CN(C)c1ccc(C(CNC(=O)c2ccc(C#N)cc2)c2c[nH]c3ccccc23)cc1` (centres undefined) as the compound, how does the IC50 [1] read?
Answer: Its IC50 is 2.78 µM (not active).

From ChEMBL document CHEMBL1201862, “PubChem BioAssay data set” (2004)
